{"source": "patent US20220386606A1", "about": "“SPECIFICALLY SUBSTITUTED 3-PHENYL-5-SPIROCYCLOPENTYL-3-PYRROLIN-2-ONES AND THEIR USE AS HERBICIDES” (Bayer Aktiengesellschaft, priority 2019, published 2022)", "key": {"[1]": {"system": "DIGSA", "test": "Post-emergence herbicidal action against DIGSA", "format": "in vivo, Digitaria sanguinalis", "settings": "80 g/ha, visual assessment about 3 weeks after treatment vs untreated controls", "how_it_was_run": "(§1)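 Herbicidal action is rated visually in percent against untreated controls, where 100% means dead plants and 0% means no difference. Ratings come about 3 weeks after foliar spraying of one-leaf-stage plants with aqueous WP or EC preparations plus 0.2% wetting agent at 600 to 800 l/ha.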"}, "[2]": {"system": "ALOMY", "test": "Pre-emergence herbicidal action against ALOMY", "format": "in vivo, Alopecurus myosuroides", "settings": "320 g/ha, scored visually after 3 weeks vs untreated controls", "how_it_was_run": "(§2)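 Visual percent damage, rated 3 weeks after treatment against untreated plants (0% like control, 100% plants dead). Compounds, as wettable powders or emulsion concentrates, were sprayed pre-emergence onto soil covering seeds sown in sandy loam, at 600 to 800 L/ha water with 0.2% wetting agent; pots kept in greenhouse.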"}, "[3]": {"system": "ECHCG", "test": "Pre-emergence herbicidal action against ECHCG", "format": "in vivo, Echinochloa crus-galli", "settings": "320 g/ha, scored visually after 3 weeks vs untreated controls", "how_it_was_run": "as §2"}, "[4]": {"system": "DIGSA", "test": "Pre-emergence herbicidal action against DIGSA", "format": "in vivo, Digitaria sanguinalis", "settings": "320 g/ha, scored visually after 3 weeks vs untreated controls", "how_it_was_run": "as §2"}, "[5]": {"system": "SETVI", "test": "Pre-emergence herbicidal action against SETVI", "format": "in vivo, Setaria viridis", "settings": "320 g/ha, scored visually after 3 weeks vs untreated controls", "how_it_was_run": "as §2"}, "[6]": {"system": "SETVI", "test": "Post-emergence herbicidal action against SETVI", "format": "in vivo, Setaria viridis", "settings": "80 g/ha, visual assessment about 3 weeks after treatment vs untreated controls", "how_it_was_run": "as §1"}, "[7]": {"system": "ALOMY", "test": "Post-emergence herbicidal action against ALOMY", "format": "in vivo, Alopecurus myosuroides", "settings": "80 g/ha, visual assessment after about 3 weeks", "how_it_was_run": "as §1"}, "[8]": {"system": "AVEFA", "test": "Pre-emergence herbicidal action against AVEFA", "format": "in vivo, Avena fatua", "settings": "320 g/ha, scored visually after 3 weeks vs untreated controls", "how_it_was_run": "as §2"}, "[9]": {"system": "VIOTR", "test": "Pre-emergence herbicidal action against VIOTR", "format": "in vivo, Viola tricolor", "settings": "320 g/ha", "from_the_text": "(§3) Seeds of monocotyledonous and dicotyledonous weed plants and crop plants are laid out in sandy loam soil in wood-fiber pots and covered with soil. The compounds of the invention, formulated in the form of wettable powders (WP) or as emulsion concentrates (EC), are then applied to the surface of the covering soil as aqueous suspension or emulsion at a water application rate equating to 600 to 800 L/ha with addition of 0.2% wetting agent.\n(§4) After the treatment, the pots are placed in a greenhouse and kept under good growth conditions for the trial plants. The damage to the test plants is scored visually after a test period of 3 weeks by comparison with untreated controls (herbicidal activity in percent (%): 100% activity=the plants have died, 0% activity=like control plants)."}, "[10]": {"system": "LOLRI", "test": "Pre-emergence herbicidal action against LOLRI (Table 8, titled post-emergence at 320 g/ha)", "format": "in vivo, Lolium rigidum", "settings": "table stands in the pre-emergence section", "how_it_was_run": "as §2"}, "[11]": {"system": "AMARE", "test": "Pre-emergence herbicidal action against AMARE", "format": "in vivo, Amaranthus retroflexus", "settings": "320 g/ha", "from_the_text": "as §3, §4"}, "[12]": {"system": "ECHCG", "test": "Post-emergence herbicidal action against ECHCG", "format": "in vivo, Echinochloa crus-galli", "settings": "80 g/ha, visual assessment about 3 weeks after treatment vs untreated controls", "how_it_was_run": "as §1"}, "[13]": {"system": "VERPE", "test": "Pre-emergence herbicidal action against VERPE", "format": "in vivo, Veronica persica", "settings": "320 g/ha", "from_the_text": "as §3, §4"}, "[14]": {"system": "LOLRI", "test": "Post-emergence herbicidal action against LOLRI", "format": "in vivo, Lolium rigidum", "settings": "80 g/ha, visual assessment about 3 weeks after treatment vs untreated controls", "how_it_was_run": "as §1"}, "[15]": {"system": "AVEFA", "test": "Post-emergence herbicidal action against AVEFA", "format": "in vivo, Avena fatua", "settings": "80 g/ha, visual assessment after about 3 weeks", "how_it_was_run": "as §1"}}, "data": [{"smiles": "CC#Cc1cc(C)c(C2=C(O)C3(CCC(COCC)C3)NC2=O)c(Br)c1", "note": "(centres unmarked) [Example I-21]", "values": [{"measurement": "Post-emergence action against DIGSA in %", "setting": "[1]", "result": 100, "unit": "%"}, {"measurement": "Pre-emergence action against ALOMY in %", "setting": "[2]", "result": 100, "unit": "%"}, {"measurement": "Pre-emergence action against ECHCG in %", "setting": "[3]", "result": 100, "unit": "%"}, {"measurement": "Pre-emergence action against DIGSA in %", "setting": "[4]", "result": 100, "unit": "%"}, {"measurement": "Pre-emergence action against SETVI in %", "setting": "[5]", "result": 100, "unit": "%"}, {"measurement": "Post-emergence action against SETVI in %", "setting": "[6]", "result": 100, "unit": "%"}, {"measurement": "Post-emergence action against ALOMY in %", "setting": "[7]", "result": 100, "unit": "%"}, {"measurement": "Pre-emergence action against AVEFA in %", "setting": "[8]", "result": 100, "unit": "%"}, {"measurement": "Pre-emergence action against VIOTR in %", "setting": "[9]", "result": 100, "unit": "%"}, {"measurement": "Pre-emergence herbicidal action against LOLRI in %", "setting": "[10]", "result": 100, "unit": "%"}, {"measurement": "Pre-emergence action against AMARE in %", "setting": "[11]", "result": 100, "unit": "%"}, {"measurement": "Post-emergence action against ECHCG in %", "setting": "[12]", "result": 100, "unit": "%"}]}, {"smiles": "CC#Cc1cc(Br)c(C2=C(O)C3(CCC(COCC)C3)NC2=O)c(CC)c1", "note": "(centres unmarked) [Example I-24]", "values": [{"measurement": "Pre-emergence action against VERPE in %", "setting": "[13]", "result": 80, "unit": "%"}]}, {"smiles": "CC#Cc1cc(C)c(C2=C(O)C3(CCC(COCCOC)C3)NC2=O)c(OC)c1", "note": "(centres unmarked) [Example I-52]", "values": [{"measurement": "Pre-emergence action against ALOMY in %", "setting": "[2]", "result": 100, "unit": "%"}, {"measurement": "Pre-emergence action against ECHCG in %", "setting": "[3]", "result": 100, "unit": "%"}, {"measurement": "Pre-emergence action against DIGSA in %", "setting": "[4]", "result": 100, "unit": "%"}, {"measurement": "Pre-emergence action against SETVI in %", "setting": "[5]", "result": 100, "unit": "%"}, {"measurement": "Post-emergence action against LOLRI in %", "setting": "[14]", "result": 90, "unit": "%"}, {"measurement": "Post-emergence action against SETVI in %", "setting": "[6]", "result": 100, "unit": "%"}, {"measurement": "Post-emergence action against ALOMY in %", "setting": "[7]", "result": 100, "unit": "%"}, {"measurement": "Pre-emergence action against AVEFA in %", "setting": "[8]", "result": 100, "unit": "%"}, {"measurement": "Pre-emergence action against VIOTR in %", "setting": "[9]", "result": 80, "unit": "%"}, {"measurement": "Pre-emergence herbicidal action against LOLRI in %", "setting": "[10]", "result": 100, "unit": "%"}, {"measurement": "Post-emergence action against AVEFA in %", "setting": "[15]", "result": 90, "unit": "%"}, {"measurement": "Pre-emergence action against AMARE in %", "setting": "[11]", "result": 80, "unit": "%"}, {"measurement": "Post-emergence action against ECHCG in %", "setting": "[12]", "result": 100, "unit": "%"}]}, {"smiles": "CC#Cc1cc(C)c(C2=C(OC(=O)C(C)C)C3(CCC(COCC)C3)NC2=O)c(Br)c1", "note": "(centres unmarked) [Example P-36]", "values": [{"measurement": "Post-emergence action against DIGSA in %", "setting": "[1]", "result": 90, "unit": "%"}, {"measurement": "Pre-emergence action against ALOMY in %", "setting": "[2]", "result": 100, "unit": "%"}, {"measurement": "Pre-emergence action against ECHCG in %", "setting": "[3]", "result": 90, "unit": "%"}, {"measurement": "Pre-emergence action against DIGSA in %", "setting": "[4]", "result": 100, "unit": "%"}, {"measurement": "Pre-emergence action against SETVI in %", "setting": "[5]", "result": 100, "unit": "%"}, {"measurement": "Post-emergence action against SETVI in %", "setting": "[6]", "result": 100, "unit": "%"}, {"measurement": "Pre-emergence action against VERPE in %", "setting": "[13]", "result": 80, "unit": "%"}, {"measurement": "Post-emergence action against ALOMY in %", "setting": "[7]", "result": 100, "unit": "%"}, {"measurement": "Pre-emergence action against AVEFA in %", "setting": "[8]", "result": 80, "unit": "%"}, {"measurement": "Pre-emergence action against VIOTR in %", "setting": "[9]", "result": 100, "unit": "%"}, {"measurement": "Pre-emergence herbicidal action against LOLRI in %", "setting": "[10]", "result": 100, "unit": "%"}, {"measurement": "Post-emergence action against ECHCG in %", "setting": "[12]", "result": 90, "unit": "%"}]}, {"smiles": "CC#Cc1cc(C)c(C2=C(OC(=O)C(C)C)C3(CCC(COC)C3)NC2=O)c(OC)c1", "note": "(centres unmarked) [Example P-46]", "values": [{"measurement": "Post-emergence action against DIGSA in %", "setting": "[1]", "result": 100, "unit": "%"}, {"measurement": "Pre-emergence action against ALOMY in %", "setting": "[2]", "result": 100, "unit": "%"}, {"measurement": "Pre-emergence action against ECHCG in %", "setting": "[3]", "result": 100, "unit": "%"}, {"measurement": "Pre-emergence action against DIGSA in %", "setting": "[4]", "result": 100, "unit": "%"}, {"measurement": "Pre-emergence action against SETVI in %", "setting": "[5]", "result": 100, "unit": "%"}, {"measurement": "Post-emergence action against LOLRI in %", "setting": "[14]", "result": 100, "unit": "%"}, {"measurement": "Post-emergence action against SETVI in %", "setting": "[6]", "result": 100, "unit": "%"}, {"measurement": "Post-emergence action against ALOMY in %", "setting": "[7]", "result": 100, "unit": "%"}, {"measurement": "Pre-emergence action against AVEFA in %", "setting": "[8]", "result": 100, "unit": "%"}, {"measurement": "Pre-emergence action against VIOTR in %", "setting": "[9]", "result": 100, "unit": "%"}, {"measurement": "Pre-emergence herbicidal action against LOLRI in %", "setting": "[10]", "result": 100, "unit": "%"}, {"measurement": "Post-emergence action against AVEFA in %", "setting": "[15]", "result": 90, "unit": "%"}, {"measurement": "Pre-emergence action against AMARE in %", "setting": "[11]", "result": 100, "unit": "%"}, {"measurement": "Post-emergence action against ECHCG in %", "setting": "[12]", "result": 100, "unit": "%"}]}, {"smiles": "CC#Cc1cc(C)c(C2=C(OC(=O)OCC)C3(CCC(COC)C3)NC2=O)c(OC)c1", "note": "(centres unmarked) [Example P-47]", "values": [{"measurement": "Post-emergence action against DIGSA in %", "setting": "[1]", "result": 100, "unit": "%"}, {"measurement": "Pre-emergence action against ALOMY in %", "setting": "[2]", "result": 100, "unit": "%"}, {"measurement": "Pre-emergence action against ECHCG in %", "setting": "[3]", "result": 100, "unit": "%"}, {"measurement": "Pre-emergence action against DIGSA in %", "setting": "[4]", "result": 100, "unit": "%"}, {"measurement": "Pre-emergence action against SETVI in %", "setting": "[5]", "result": 100, "unit": "%"}, {"measurement": "Post-emergence action against LOLRI in %", "setting": "[14]", "result": 100, "unit": "%"}, {"measurement": "Post-emergence action against SETVI in %", "setting": "[6]", "result": 100, "unit": "%"}, {"measurement": "Post-emergence action against ALOMY in %", "setting": "[7]", "result": 100, "unit": "%"}, {"measurement": "Pre-emergence action against AVEFA in %", "setting": "[8]", "result": 100, "unit": "%"}, {"measurement": "Pre-emergence action against VIOTR in %", "setting": "[9]", "result": 100, "unit": "%"}, {"measurement": "Post-emergence action against AVEFA in %", "setting": "[15]", "result": 90, "unit": "%"}, {"measurement": "Pre-emergence action against AMARE in %", "setting": "[11]", "result": 100, "unit": "%"}, {"measurement": "Post-emergence action against ECHCG in %", "setting": "[12]", "result": 100, "unit": "%"}]}]}
